Data from US7989630B2, “Radiotracers for imaging P-glycoprotein function” (National Institutes of Health Represented by the Secretary …, priority 2008, dated 2011).
Counter-ions that a name gives are not always drawn. One block for each compound: values may come before it.

Tests used:
[1] = Plasma analysis of [^11C]loperamide in nonhuman primates (arterial plasma, radio-HPLC); details: for time at which parent radiotracer was 50% of total plasma activity: monkey arterial plasma
From the text: (§1) For tariquidar only a blockade scan was acquired and compared to the baseline scans of three other animals.

P-gp [2] = assay: PET imaging of [^11C]loperamide in monkey brain with P-gp inhibitors; details: for increase of brain activity after [^11C]loperamide: monkey; for increase of peak radioactivity in brain after [^11C]loperamide: inhibitor 8.0 mg/kg i.v. 30 min before radiotracer, monkey (FIG. 3)
Method: as §1
PET images were co-registered to a magnetic resonance image template of a monkey brain. Tomographic images were analyzed with PMOD 2.7 (pixel-wise modeling computer software; PMOD Group, Adliswil, Switzerland). Regions of interest were drawn on coronal slices. Decay-corrected radioactivity was expressed as % standardized uptake value (% SUV), which normalizes for injected activity and body weight. % SUV=(% injected activity per cm3 brain)×(g body weight).

P-gp [3] = details: P-gp knockout mice, 30 min after injection of [^11C]loperamide
Method: At 30 min after radiotracer injection, anticoagulated blood was removed by cardiac puncture, and the brain was harvested. Plasma was separated from whole blood by centrifugation at 1,800 g for 1 min. […] The homogenates were measured in the y-counter to calculate the % recovery of radioactivity into the acetonitrile extracts. The homogenates were then centrifuged at 10,000×g for 1 min. […] The eluate was monitored with an in-line flow-through Na(Tl) scintillation detector (Bioscan, Washington D.C., USA). Plasma parent and radiometabolite concentrations were calculated as the product of the radio-HPLC fraction of interest and the total plasma radioactivity concentration (dpm/mL).

[4] = Arterial plasma parent input function and plasma free fraction, [^11C]loperamide with tariquidar; type: in vivo; details: monkey
Method: Arterial plasma parent input function and plasma free fraction (fl) were determined in monkey.

P-gp [5] = tested on: P-gp
Method: Serial dynamic images were acquired for 100 min, with frames of 6×20 s, 5×1 min, 4×2 min, 3×5 min, 3×10 min, and 2×20 min. […] The small mouse brain causes little scatter and attenuation of the gamma emissions from carbon-11, and, thus, no correction for scatter or attenuation was performed.

P-gp [6] = assay: Monkey brain PET with [^11C]loperamide, baseline and tariquidar (additional experiments)
P-gp [7] = assay: P-gp function imaged with [^11C]dLop in monkeys, brain study; type: in vivo; details: naloxone 5 mg/kg or loperamide 1 mg/kg at 30 min after [^11C]dLop, P-gp blocked monkeys
Method: Displacement agents were given at 30 min after the radiotracer. A subset of monkeys also had arterial blood sampling (n=5) and [^15O]H2O PET scans (n=4) to measure the concentration of parent radiotracer in plasma and cerebral blood flow, respectively.

CYP3A4 = details: mouse, in vivo
Method: Ex vivo studies were performed in wild-type (WT) and P-gp knockout (KO) mice. […] Whole brain and plasma sample radioactivity were measured with γ-counting and HPLC analysis.

μ opiate receptor = μ opiate receptor (Homo sapiens, UniProt P35372); type: binding
Sequence of μ opiate receptor (P35372 whole entry): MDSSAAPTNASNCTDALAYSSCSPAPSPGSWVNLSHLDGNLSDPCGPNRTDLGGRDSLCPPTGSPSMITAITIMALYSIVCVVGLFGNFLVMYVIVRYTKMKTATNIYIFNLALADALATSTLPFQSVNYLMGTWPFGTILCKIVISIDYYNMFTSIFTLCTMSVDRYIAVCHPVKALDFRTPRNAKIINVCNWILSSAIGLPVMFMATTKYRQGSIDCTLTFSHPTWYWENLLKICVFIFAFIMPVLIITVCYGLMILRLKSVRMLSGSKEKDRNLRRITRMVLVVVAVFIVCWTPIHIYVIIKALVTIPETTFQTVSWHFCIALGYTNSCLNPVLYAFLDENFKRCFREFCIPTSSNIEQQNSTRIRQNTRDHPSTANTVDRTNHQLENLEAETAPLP
From the text: (§2) Detailed binding protocols are available on the web site for The National Institute of Mental Health Psychoactive Drug Screening Program.

δ opiate receptor = δ opiate receptor (Homo sapiens, UniProt P41143); assay: In vitro receptor binding, cloned human δ opiate receptor
Sequence of δ opiate receptor (P41143 whole entry): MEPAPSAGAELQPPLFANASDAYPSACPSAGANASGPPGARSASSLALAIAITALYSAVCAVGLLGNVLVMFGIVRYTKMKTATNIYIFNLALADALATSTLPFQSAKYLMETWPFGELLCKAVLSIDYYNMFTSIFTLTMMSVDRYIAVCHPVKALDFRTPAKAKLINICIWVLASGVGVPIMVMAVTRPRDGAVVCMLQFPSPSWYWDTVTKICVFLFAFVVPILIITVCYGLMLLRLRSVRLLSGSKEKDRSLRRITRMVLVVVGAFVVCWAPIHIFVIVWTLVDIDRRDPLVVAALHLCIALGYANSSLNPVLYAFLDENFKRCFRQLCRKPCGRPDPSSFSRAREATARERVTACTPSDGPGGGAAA
From the text: as §2

κ opiate receptor = κ opiate receptor (Homo sapiens, UniProt P41145); assay: biochemical; details: agonist radiotracer ^3H-U69,593; mean ± SD of four competitive binding experiments
Sequence of κ opiate receptor (P41145 whole entry): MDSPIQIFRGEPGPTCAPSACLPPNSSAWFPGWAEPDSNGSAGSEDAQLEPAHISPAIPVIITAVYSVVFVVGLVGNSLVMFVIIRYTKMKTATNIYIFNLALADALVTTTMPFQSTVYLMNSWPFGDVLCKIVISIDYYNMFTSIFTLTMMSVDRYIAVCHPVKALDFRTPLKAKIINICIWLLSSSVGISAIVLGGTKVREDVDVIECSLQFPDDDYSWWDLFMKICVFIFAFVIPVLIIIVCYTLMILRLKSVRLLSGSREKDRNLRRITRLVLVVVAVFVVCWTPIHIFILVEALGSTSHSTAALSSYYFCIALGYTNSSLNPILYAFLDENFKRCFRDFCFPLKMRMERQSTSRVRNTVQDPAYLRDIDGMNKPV
From the text: as §2

P-gp [8] = assay: PET imaging of [^11C]dLop in monkey brain, baseline and P-gp blocked with DCPQ; details: for increase of regional radioactivity concentration relative to baseline: DCPQ 16 mg/kg i.v. before [^11C]dLop, averaged 25-50 min
Method: Scatter and attenuation correction were applied. Images were analyzed with PMOD. Regions of interest were drawn on coronal slices for eight brain regions (frontal cortex, anterior cingulate, temporal cortex, parietal cortex, hippocampus, occipital cortex, putamen and cerebellum). Activity was decay-corrected to the time of injection and expressed as % SUV. […]
Time-radioactivity data were collected for the same eight brain regions as previously described.

P-gp [9] = biological target: P-gp (Mus musculus, UniProt P21447); details: 30 min after [^11C]loperamide i.v.
Sequence of P-gp (Mus musculus, UniProt P21447) (P21447 whole entry): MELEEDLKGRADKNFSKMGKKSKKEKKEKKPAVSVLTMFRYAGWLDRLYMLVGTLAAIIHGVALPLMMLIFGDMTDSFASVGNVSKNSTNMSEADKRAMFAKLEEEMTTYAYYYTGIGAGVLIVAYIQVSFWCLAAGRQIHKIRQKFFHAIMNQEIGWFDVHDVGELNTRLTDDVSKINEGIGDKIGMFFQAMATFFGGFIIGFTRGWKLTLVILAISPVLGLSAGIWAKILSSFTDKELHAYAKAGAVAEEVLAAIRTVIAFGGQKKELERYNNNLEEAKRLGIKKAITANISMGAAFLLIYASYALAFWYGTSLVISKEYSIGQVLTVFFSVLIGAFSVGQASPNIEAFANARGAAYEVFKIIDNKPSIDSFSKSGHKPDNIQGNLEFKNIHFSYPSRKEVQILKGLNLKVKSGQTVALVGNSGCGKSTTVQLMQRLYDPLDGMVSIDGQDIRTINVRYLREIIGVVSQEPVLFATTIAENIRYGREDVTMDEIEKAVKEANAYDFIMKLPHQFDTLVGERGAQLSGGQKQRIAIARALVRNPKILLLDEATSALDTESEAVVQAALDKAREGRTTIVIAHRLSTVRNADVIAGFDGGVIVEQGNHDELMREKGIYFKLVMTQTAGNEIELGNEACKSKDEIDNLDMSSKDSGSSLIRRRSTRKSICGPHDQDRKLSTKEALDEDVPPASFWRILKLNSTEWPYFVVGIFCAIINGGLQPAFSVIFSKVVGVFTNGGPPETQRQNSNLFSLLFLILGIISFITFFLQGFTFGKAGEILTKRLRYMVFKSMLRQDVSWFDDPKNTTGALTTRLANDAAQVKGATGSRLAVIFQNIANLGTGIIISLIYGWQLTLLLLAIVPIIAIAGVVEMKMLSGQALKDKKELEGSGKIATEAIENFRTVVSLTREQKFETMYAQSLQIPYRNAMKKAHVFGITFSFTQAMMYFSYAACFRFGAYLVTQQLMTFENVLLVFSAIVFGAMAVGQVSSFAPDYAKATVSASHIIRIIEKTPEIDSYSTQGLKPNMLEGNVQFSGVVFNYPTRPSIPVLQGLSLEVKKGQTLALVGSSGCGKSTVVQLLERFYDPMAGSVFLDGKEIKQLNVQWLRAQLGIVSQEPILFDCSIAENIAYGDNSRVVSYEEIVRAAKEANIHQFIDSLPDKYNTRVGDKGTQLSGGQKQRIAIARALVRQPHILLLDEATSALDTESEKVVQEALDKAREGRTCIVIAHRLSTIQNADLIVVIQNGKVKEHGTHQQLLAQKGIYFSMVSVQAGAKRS
From the text: (§3) The most lipophilic radiometabolite was identified by radio-HPLC co-elution as N-desmethylloperamide (dLop) (data not shown).

P-gp [10] = details: KO mice, 30 min after [^11C]loperamide i.v.
From the text: as §3

[11] = Plasma free fraction (fP) by ultracentrifugation; type: in vitro ADME; details: fP of [^11C]loperamide, monkey
P-gp [12] = details: DCPQ 16 mg/kg i.v., monkeys
Method: The brains of three P-gp KO and three WT mice were scanned for 90 min after administration of [^11C]dLop (˜580 μCi, i.v.). Mice injected with [^11C]dLop (600 μCi, i.v.) were also sacrificed at 30 min, and acetonitrile extracts of blood and brain analyzed with reverse phase HPLC.

P-gp [13] = details: Ekins et al. 2002 (DCPQ); Martin et al. 1999 (tariquidar); cited from earlier work
P-gp [14] = details: iv, 8 mg/kg
[15] = inhibitor 8 mg/kg i.v. 30 min before radiotracer

SMILES: CN([11CH3])C(=O)C(CCN1CCC(O)(c2ccc(Cl)cc2)CC1)(c1ccccc1)c1ccccc1 [[^11C]loperamide, 4-(4-(4-chlorophenyl)-4-hydroxypiperidin-1-yl)-N,N-dimethyl-2,2-diphenylbutanamide]
time at which parent radiotracer was 50% of total plasma activity ([1]; after DCPQ 8 mg/kg i.v.): 20 min
time at which parent radiotracer was 50% of total plasma activity ([1]; baseline): 17 min
time at which parent radiotracer was 50% of total plasma activity ([1]; baseline, listed as [^11C]Loperamide): about 20 min
brain uptake under baseline conditions (P-gp [2]; three monkeys, 120 min scan): ~40 % SUV
share of brain radioactivity after [^11C]loperamide (P-gp [3]): ~50%
time over which parent plasma composition decreased to 50% ([4]; baseline): 17 min
maximal activity in cerebellum, knockout vs wild type mice (PET) (P-gp [5]; cerebellum): 1.9 fold
maximal activity in forebrain, knockout vs wild type mice (PET) (P-gp [5]; forebrain): 2.7 fold
brain activity, knockout vs wild type mice (PET) (P-gp [5]; whole brains): about three-fold
brain activity, baseline (P-gp [6]; baseline): 40 % standard uptake value

SMILES: C=CCN1CC[C@]23c4c5ccc(O)c4O[C@H]2C(=O)CC[C@@]3(O)[C@H]1C5 [naloxone, reference compound]
displacement of the radiotracer from brain (P-gp [7]): Neither naloxone nor loperamide caused any apparent displacement

SMILES: CC(=O)N1CCN(c2ccc(OCC3COC(Cn4ccnc4)(c4ccc(Cl)cc4Cl)O3)cc2)CC1 (stereo not shown) [ketoconazole]
decrease of radiometabolite dLop in plasma (CYP3A4): ~70%
increase of [^11C]dLop concentration in plasma (CYP3A4): ~240%
increase of [^11C]loperamide concentration in plasma (CYP3A4): ~100%

SMILES: CNC(=O)C(CCN1CCC(O)(c2ccc(Cl)cc2)CC1)(c1ccccc1)c1ccccc1 [dLop, 4-(4-(4-Chlorophenyl)-4-hydroxypiperidin-1-yl)-2,2-diphenyl-N-methyl-butanamide]
Ki (μ opiate receptor): 0.56 ± 0.05 nM
Ki (δ opiate receptor): 328 ± 22 nM
Ki (κ opiate receptor): 73 ± 7 nM
effect on washout of radioactivity from brain regions (P-gp [8]; given 30 min after [^11C]dLop to DCPQ-treated monkey (naloxone 5 mg/kg i.v.; loperamide or dLop 1 mg/kg i.v.)): no discernible effect
Brain composition (P-gp [9]; WT mice): 4.3%
concentration increase over control (KO vs WT) (P-gp [9]; brain): 59 fold
Brain composition (P-gp [10]): 21%

SMILES: CN(C)C(=O)C(CCN1CCC(O)(c2ccc(Cl)cc2)CC1)(c1ccccc1)c1ccccc1 [Loperamide, 4-(p-chlorophenyl)-4-hydroxy-N,N-dimethyl-α,α-diphenyl-1-piperidinebutyramide hydrochloride, reference compound]
Brain composition (P-gp [10]): 63%
displacement of the radiotracer from brain (P-gp [7]): Neither naloxone nor loperamide caused any apparent displacement

SMILES: Cl.Cl.Cl.O[C@@H](COc1cccc2ncccc12)CN1CCN(C2c3ccccc3C3C(c4ccccc42)C3(Cl)Cl)CC1 (stereo partly drawn) [DCPQ, (2R)-anti-5-{3-[4-(10,11-dichloromethanodibenzosuber-5-yl)piperazin-1-yl]-2-hydroxypropoxy}quinoline trihydrochloride]
increase in plasma exposure of [^11C]loperamide ([1]; DCPQ 8 mg/kg i.v. vs baseline, monkey): 16%
Plasma free fraction (fP), P-gp Inhibition ([11]; inhibitor 1.0 mg/kg): 5.7 ± 0.3
Plasma free fraction (fP), P-gp Inhibition ([11]; inhibitor 3.0 mg/kg): 1.4 ± 0.5
Plasma free fraction (fP), P-gp Inhibition ([11]; inhibitor 8.0 mg/kg): 4.4 ± 1.4
increase of brain activity after [^11C]loperamide (P-gp [2]; inhibitor 1 mg/kg i.v. 30 min before radiotracer): minimal effect
increase of brain activity after [^11C]loperamide (P-gp [2]; inhibitor 3 mg/kg i.v. 30 min before radiotracer): ~2.5 fold
increase of brain activity after [^11C]loperamide (P-gp [2]; [15]): ~3.5 fold
increase of peak radioactivity in brain after [^11C]loperamide (P-gp [2]): 3.7 fold
dependence of regional brain radioactivity uptake on dose (P-gp [8]; DCPQ 0-16 mg/kg i.v. before [^11C]dLop, one monkey): increased almost linearly with dose of DCPQ
ratio of maximal brain radioactivity to that in the baseline experiment (P-gp [8]; DCPQ 8 mg/kg i.v. before [^11C]dLop, monkey): about five
effect on uptake of radioactivity into pituitary (P-gp [8]; DCPQ 8 mg/kg or 16 mg/kg i.v. before [^11C]dLop, monkey): unaffected
increase of regional radioactivity concentration relative to baseline (P-gp [8]; cerebellum, monkey): thirteen-fold
increase of regional radioactivity concentration relative to baseline (P-gp [8]; frontal cortex, monkey): seven-fold
increase of brain radioactivity after [^11C]dLop (P-gp [12]): more than 7 fold
affinity to the P-gp (P-gp [13]): 5.3 nM

Plasma free fraction (fP), Δ relative to baseline ([11]; inhibitor 8.0 mg/kg): negligibly affected
time over which parent plasma composition decreased to 50% ([4]; rhesus, in vivo): 20 min
SMILES: COc1cc2c(cc1OC)CN(CCc1ccc(NC(=O)c3cc(OC)c(OC)cc3NC(=O)c3cnc4ccccc4c3)cc1)CC2 [Tariquidar]
increase of brain activity after [^11C]loperamide (P-gp [2]; [15]): equipotent with DCPQ
increase of peak radioactivity in brain after [^11C]loperamide (P-gp [2]): 3.7 fold
increase of brain activity after [^11C]loperamide (P-gp [2]; inhibitor 8 mg/kg i.v. 30 min before radiotracer, listed as tariquidar): ~3.5 fold
brain activity after P-gp inhibition (P-gp [14]): 146 % standard uptake value
affinity to the P-gp (P-gp [13]): 5.1 nM
increase of brain activity after [^11C]loperamide (P-gp [6]; tariquidar 8 mg/kg i.v.): about 3.7 fold
